Experimental data: patent US7157256B2, “Method for producing para-hydroxystyrene and other multifunctional aromatic compounds using two-phase extractive fermentation” (E. I. du Pont de Nemours and Company, priority 2003, dated 2007)
Several values for one entry are separate records, joined by “and”; a condition that tells them apart may be missing. Identical values can stand only once. Entries after “also recorded” stand apart in the source; their conditions may differ.

Assays:
[1] = P values obtained from Hansch et al. 1995; cited from earlier work
E. coli TY1 (DGL430) = assay: Toxicity testing of organic solvents toward E. coli using agar cultures; type: cell-based; settings: for % CFU 1 Sample 2 / % CFU Sample 1 / % CFU Sample 3: 5 mL solvent on inoculated LB agar plate, 30° C., CFU as percentage of control plates; for toxicity to E. coli in words: agar plate study
Protocol: This study was done using E. coli TY1 (DGL430), as described in Example 1. A stock culture of this strain was prepared in 50% glycerol and stored at −20° C. This stock culture (10 μL) was used to inoculate a 14 mL Falcon™ tube (BD Biosciences, Bedford, Mass.) containing 5 mL of LB medium, consisting of Bacto-tryptone (10 g/L), Bacto-yeast extract (5 g/L), and NaCL (10 g/L) adjusted to pH 7.5 with NaOH, and supplemented with tetracycline (10 μg/mL). This culture was incubated at 34° C. and 250 rpm overnight in an incubator shaker until an OD600 of between 1.0 and 2.0 was obtained. Dilutions of this culture were spread onto LB agar plates. The appropriate dilution was determined by experimentation to obtain between 100 to 200 colonies per plate. The solvents (5 mL) were filtered through a 0.2 μm filter onto the inoculated agar plates. All the solvents were tested in triplicate.
The plates were incubated overnight at 30° C. in a vented incubator located in a chemical fume hood. The colonies formed were counted after 24 and 48 h. The colony forming units (CFUs) obtained with each solvent were compared to those of the control plates and plotted in FIG. 1 as a percentage versus the log P value for the solvent (P values obtained from Hansch et al., Exploring QSAR: Hydrophobic, Electronic and Steric Constants, American Chemical Society, Washington, D.C., 1995). […] The error bars in the figure represent the range of the data. Cell growth on the agar medium was characterized by the presence of both distinct and non-distinct colony formations, which affected the precision of the colony counts. In the presence of some of the solvents tested, growth continued between 24 and 48 h, while with other solvents, no further growth was observed after 24 h.

E. coli strain BNT511 = assay: Effect of organic solvents on the growth of E. coli, shake flasks; type: cell-based; settings: for OD 550: 10 mL solvent in 30 mL medium
Source text: E. coli strain BNT511 was used in this study. This strain is a tyrosine overproducing strain derived from E. coli strain NST 74 (ATCC No. 31884), which was obtained from the American Type Culture Collection (ATCC) (Manassas, Va.). Strain BNT511 is deposited with the American Type Culture Collection under the terms of the Budapest Treaty on the International Recognition of the Deposit of Microorganisms for the Purposes of Patent Procedure and has been assigned a depository designation of PTA-4314. E. coli strain BNT511 was obtained as follows. A culture of E. coli strain NST 74 was grown overnight at 37° C. in three milliliters of M9 medium, prepared as follows. A solution of M9 salts buffer consisting of KH2PO4 (3 g/L), Na2HPO4 (6 g/L), NaCl (0.5 g/L), and NH4Cl (1 g/L), was prepared and the pH was adjusted to 7.4. This M9 salts buffer was autoclaved and then the following solutions, each sterilized separately by filtration (glucose) or autoclaving, were added to give the concentrations given in parentheses MgSO4 (0.24 g/L), glucose (0.2%), CaCl2 (0.011 g/L), and yeast extract (1 g/L). After growth, the culture was diluted by a factor of 10^3 to 10^6 in M9 salts buffer. Then, 100 μL of each dilution was plated on M9+1% glucose agar containing […] of 3-fluorotyrosine and the plates were incubated at 37° C. After 18 h, growth was observed only on the plate not containing 3-fluorotyrosine. Plates containing 3-fluorotyrosine were incubated an additional 24 h, after which time, several isolates were identified. One NST 74-derived isolate was obtained from each of the 150 and 450 mg/mL 3-fluorotyrosine plates. Individual isolates were propagated on M9+1% glucose agar containing 0, 50, 150, or 250 mg/mL 3-fluorotyrosine. One of these two isolates was designated as BNT511.
E. coli strain BNT511 was grown in a medium containing KH2PO4 (0.15 g/L), Na2HPO4 (0.35 g/L), (NH4)2 SO4 (3 g/L), MgSO4.7H2O (0.3 g/L), yeast extract (0.5 g/L), MOPS (15.6 g/L), and glucose (10 g/L), adjusted to pH 6.8. A seed culture, taken from an active culture that grew in a fermentor and was diluted to 0.3 OD at 550 nm, was used to inoculate 30 mL of culture medium in 250 mL baffled flasks. Ten milliliters of the solvent to be tested, either 1-undecanol (98%, obtained from Aldrich) or 2-undecanone (98%, obtained from Aldrich), was added to the flask and the flasks were incubated at 35° C. and 300 rpm for 22 h in an incubator shaker. A flask without an organic solvent added served as the control. This experiment was run in duplicate. Samples of the aqueous culture media were removed at various times and the pH and the OD550 were measured. As shown by the results given in Table 2, the presence of the organic solvents tested had no significant effect on the growth of E. coli. However, the results obtained with 2-undecanone in these studies were not consistent. […] We believe that this variability was caused by variations in the purity of this solvent.

[2] = Extraction of CA into organic phase, two-phase flask fermentation; type: physicochemical
Protocol: The strain used in this study was E. coli WWQ51.1, as described in Example 3. The conditions were similar to those described in Example 3. Eight test cultures were inoculated; six contained 20 mL of 2-undecanone, the other two contained 20 mL of 1-undecanol. A 10% w/v solution of pHS in propylene glycol (0.5 mL), obtained from Sigma-Aldrich, Milwaukee, Wis., was added to two of the cultures containing 2-undecanone, as specified in Table 7.
The cultures were incubated in 250 mL baffled flasks at 35° C. and 300 rpm for 24 h in an incubator shaker. After this time, a sample of the aqueous phase was withdrawn and the pH, OD550, and the concentration of the fermentation products were measured, as described supra. The organic phase was also sampled and the concentration of CA and pHS were determined using HPLC, as described supra.
In this study, the pH decreased to low values and a significant amount of CA was extracted into both organic solvents tested. The amount of pHS produced was low, probably because of its poor stability at low pH. As shown by the data in Table 9, the amount of CA extracted into the organic phase was very dependent on the pH of the medium. This pH dependence results because the fully protonated species is the form extracted into the organic phase. The ionized acid form is very water-soluble and is not extracted into the organic phase. Therefore, the extractive fermentation of acidic compounds such as CA and pHCA is favored at low pH, where the acid exists primarily in the unionized form.

[3] = 2 h, 35° C., 300 rpm, duplicate flasks

CCCCC(=O)c1ccccc1 [1-Phenyl-1-pentanone]
Log P [1]: 3.33 | % CFU 1 Sample 2 (E. coli TY1 (DGL430)): 62% | % CFU Sample 1 (E. coli TY1 (DGL430)): 33% | % CFU Sample 3 (E. coli TY1 (DGL430)): 0%

CCCCCCCCCCCO [1-undecanol]
OD 550 (E. coli strain BNT511; [3]): 1.428 and 1.456 | OD 550 (E. coli strain BNT511; 4.2 h): 1.96 and 2.14 | OD 550 (E. coli strain BNT511; 6 h): 6.02 and 6.7 | OD 550 (E. coli strain BNT511; 22 h): 19.1 and 15.7

CCCCCCCCC(C)=O [2-Decanone]
Log P [1]: 3.39 | % CFU 1 Sample 2 (E. coli TY1 (DGL430)): 0% | % CFU Sample 1 (E. coli TY1 (DGL430)): 0% | % CFU Sample 3 (E. coli TY1 (DGL430)): 0%

CCCCCCCCCCCC(C)=O [2-Tridecanone]
Log P [1]: 4.95 | % CFU 1 Sample 2 (E. coli TY1 (DGL430)): 115% | % CFU Sample 1 (E. coli TY1 (DGL430)): 100% | % CFU Sample 3 (E. coli TY1 (DGL430)): 87% | toxicity to E. coli in words (E. coli TY1 (DGL430)): relatively nontoxic to E. coli

CCCCCCCCCC(C)=O [2-undecanone]
Log P [1]: 3.91 | % CFU 1 Sample 2 (E. coli TY1 (DGL430)): 11% | % CFU Sample 1 (E. coli TY1 (DGL430)): 11% | % CFU Sample 3 (E. coli TY1 (DGL430)): 11% | toxicity to E. coli in words (E. coli TY1 (DGL430)): significantly inhibit growth | growth inhibition / toxicity to E. coli of some lots (E. coli strain BNT511; 2-undecanone from some suppliers and lots, ascribed to impurities): found to inhibit growth; also recorded: toxic to E. coli due to impurities | OD 550 (E. coli strain BNT511; [3]): 1.004 | OD 550 (E. coli strain BNT511; 4.2 h): 1.88 | OD 550 (E. coli strain BNT511; 6 h): 6.3 and 6.28 | OD 550 (E. coli strain BNT511; 22 h): 15.2 and 12.3

O=C(O)C=Cc1ccccc1 [CA, cinnamic acid]
CA Org/CA Aq ([2]; Flask 1, 2-undecanone 20 mL/flask, pH 5.38, 24 h): 3.55 | CA Org/CA Aq ([2]; Flask 2, 2-undecanone, pH 4.5): 17.00 | CA Org/CA Aq ([2]; Flask 3, 2-undecanone, pH 5.5): 1.43 | CA Org/CA Aq ([2]; Flask 4, 2-undecanone, pH 5.4): 2.54 | CA Org/CA Aq ([2]; Flask 5, 2-undecanone, pH 4.8): 8.08 | CA Org/CA Aq ([2]; Flask 6, 2-undecanone, pH 5.7): 1.10 | CA Org/CA Aq ([2]; Flask 7, 1-undecanol, pH 5.7): 2.10 | CA Org/CA Aq ([2]; Flask 8, 1-undecanol, pH 5.71): 2.15

c1ccc(COCc2ccccc2)cc1 [Dibenzyl ether]
Log P [1]: 3.1 | % CFU 1 Sample 2 (E. coli TY1 (DGL430)): 5% | % CFU Sample 1 (E. coli TY1 (DGL430)): 1.5% | % CFU Sample 3 (E. coli TY1 (DGL430)): 0%

CC(C)CCOCCC(C)C [Diisopentyl ether]
Log P [1]: 3.96 | % CFU 1 Sample 2 (E. coli TY1 (DGL430)): 39% | % CFU Sample 1 (E. coli TY1 (DGL430)): 13% | % CFU Sample 3 (E. coli TY1 (DGL430)): 0%

CCCCCCCCCC(=O)OC [Methyl decanoate]
Log P [1]: 4.41 | % CFU 1 Sample 2 (E. coli TY1 (DGL430)): 109% | % CFU Sample 1 (E. coli TY1 (DGL430)): 73% | % CFU Sample 3 (E. coli TY1 (DGL430)): 44% | toxicity to E. coli in words (E. coli TY1 (DGL430)): relatively nontoxic to E. coli

CCCOC(=O)c1ccccc1 [Propyl benzoate]
% CFU 1 Sample 2 (E. coli TY1 (DGL430)): 26% | % CFU Sample 1 (E. coli TY1 (DGL430)): 9% | % CFU Sample 3 (E. coli TY1 (DGL430)): 0.9%
